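Method: 48-hour compound exposure of cells in 96-well plates, five concentrations, linear interpolation of endpoints. GI50: concentration for 50% inhibition of growth.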 Calls of active or inactive are those of the source. No stated cut-off is given here; in the data, active = GI50 up to about 1.1 µM and inactive = higher.

Some test systems named below: MDA-N; CAKI-1; KM12; U-251; SNB-19; HCC 2998; SK-OV-3; MOLT-4; HOP-92; SR; COLO 205; NCI-H522; RPMI-8226; SK-MEL-5; UACC-62; HOP-62; A549; NCI-H460; DU-145; HCT-15.
Common to all, as to experiment: NCI-60 cell line screen, 48 h

Take `C[C@@H](NC(=O)c1ccc(CNC(=O)/C=C/c2cccc(Oc3ccccc3)c2)cc1)c1ccccc1`: the GI50 is > 100 µM (inactive) in the test with MDA-N; 14.7 µM (inactive) with CAKI-1; > 100 µM (inactive) in the test with KM12; 47.4 µM (inactive) in the test with U-251; 16.4 µM (inactive) with SNB-19; > 100 µM (inactive) in the test with HCC 2998. For the same molecule, the GI50 in the test on SK-OV-3 is > 93.1 µM (inactive); in the test on MOLT-4, > 100 µM (inactive); in the test on HOP-92, 59.7 µM (inactive); with SR it was > 100 µM (inactive); in the test with COLO 205, > 100 µM (inactive); in the test on NCI-H522, > 66.7 µM (inactive). Moreover, the GI50 was > 100 µM (inactive) in the test on RPMI-8226; 99.8 µM (inactive) with SK-MEL-5; > 82.6 µM (inactive) in the test on UACC-62; 17.9 µM (inactive) in the test with HOP-62; 14 µM (inactive) in the test on A549; 34.7 µM (inactive) with NCI-H460. Moreover, the GI50 was > 100 µM (inactive) in the test on DU-145 and greater than 100 µM in the test on HCT-15.
Take `Cc1ccc2nc3n(c2c1)C(c1c(F)cccc1F)SC3` (stereo not given): the GI50 in the test on MDA-N is > 100 µM (inactive); with CAKI-1, 19.1 µM (inactive); with KM12, > 100 µM (inactive); with U-251, > 100 µM (inactive); in the test with SNB-19 it was > 100 µM (inactive); in the test on HCC 2998 it was > 100 µM (inactive). The GI50 is > 100 µM (inactive) with SK-OV-3; 63.8 µM (inactive) in the test on MOLT-4; 49.3 µM (inactive) in the test with HOP-92; > 100 µM (inactive) in the test with SR; > 100 µM (inactive) with COLO 205; 55.5 µM (inactive) with NCI-H522. For the same molecule, the GI50 in the test on RPMI-8226, with SK-MEL-5, in the test with UACC-62, in the test with HOP-62, in the test on A549 and with NCI-H460 was > 100 µM (inactive) throughout. In addition, the GI50 was > 100 µM (inactive) in the test on DU-145 and greater than 100 µM in the test on HCT-15.
Take `CCc1cccc(CC)c1Nc1nc(-c2ccccc2-c2ccccc2)cs1`: the GI50 in the test with MDA-N is 50.8 µM (inactive); in the test on CAKI-1, > 100 µM (inactive); with KM12 it was 94.8 µM (inactive); in the test with U-251, 54.8 µM (inactive); in the test with SNB-19, > 100 µM (inactive); in the test with HCC 2998 it was > 100 µM (inactive). Also, the GI50 is > 100 µM (inactive) in the test with SK-OV-3; 75.2 µM (inactive) in the test on MOLT-4; 46.6 µM (inactive) in the test on HOP-92; 52.1 µM (inactive) in the test on SR; 66.5 µM (inactive) in the test with COLO 205; 84.7 µM (inactive) in the test on NCI-H522. Besides, the GI50 was 30.3 µM (inactive) in the test on RPMI-8226; 79.1 µM (inactive) in the test on SK-MEL-5; 86.5 µM (inactive) in the test with UACC-62; > 100 µM (inactive) in the test on HOP-62; > 100 µM (inactive) in the test on A549; 65.3 µM (inactive) with NCI-H460. Further, the GI50 is > 100 µM (inactive) in the test on DU-145 and 94.2 µM with HCT-15.
Turning to `COc1ccc(N2C(=O)C(=O)N(c3ccc(/N=N\c4ccccc4)cc3)C2=S)cc1`, the GI50 with MDA-N is 19.3 µM (inactive); in the test on CAKI-1, 20.2 µM (inactive); in the test on KM12, 17.5 µM (inactive); in the test with U-251, 17.1 µM (inactive); in the test on SNB-19, 21.9 µM (inactive); in the test on HCC 2998, 16.4 µM (inactive). In addition, the GI50 in the test with SK-OV-3 is 20.2 µM (inactive); in the test with MOLT-4, 32.9 µM (inactive); with HOP-92 it was 16.8 µM (inactive); in the test on SR, 38 µM (inactive); in the test on COLO 205, 17.1 µM (inactive); with NCI-H522, 5.37 µM (inactive). Moreover, the GI50 in the test with RPMI-8226 was 40.7 µM (inactive); with SK-MEL-5 it was 16.7 µM (inactive); in the test on UACC-62, 16.6 µM (inactive); in the test with HOP-62 it was 18.6 µM (inactive); in the test with A549, 20.2 µM (inactive); with NCI-H460 it was 18.3 µM (inactive). Further, the GI50 is 16 µM (inactive) in the test with DU-145 and 17.2 µM in the test on HCT-15.
Regarding `O=c1[nH]c(=O)n(C2OC(CO)C(O)C2O)c2ncc(-c3ccc(-c4ccccc4)cc3)nc12` (stereo not given), the GI50 with MDA-N, in the test on CAKI-1, in the test on KM12, with U-251, in the test with SNB-19 and in the test with HCC 2998 was > 20 µM (inactive) throughout. For the same molecule, the GI50 with SK-OV-3, with MOLT-4, with HOP-92, with SR, in the test with COLO 205 and with NCI-H522 was > 20 µM (inactive) in each case. For the same molecule, the GI50 with RPMI-8226, in the test with SK-MEL-5, in the test with UACC-62, in the test on HOP-62, with A549 and in the test on NCI-H460 was > 20 µM (inactive) in each case. Also, the GI50 is > 20 µM (inactive) in the test with DU-145 and greater than 20 µM in the test with HCT-15.
`Cc1cc(C)n(C(C)(C(=O)Cc2ccccc2)n2nc(C)cc2C)n1`: the GI50 in the test with MDA-N, with CAKI-1, with KM12, in the test with U-251, with SNB-19 and in the test with HCC 2998 was > 100 µM (inactive) in each case. For the same molecule, the GI50 in the test with SK-OV-3, in the test with MOLT-4, with HOP-92, in the test on SR, in the test with COLO 205 and with NCI-H522 was > 100 µM (inactive) in each case. The GI50 in the test with RPMI-8226, in the test on SK-MEL-5, in the test with UACC-62, in the test on HOP-62, with A549 and in the test on NCI-H460 was > 100 µM (inactive) each time. Besides, the values for the GI50 in the test with DU-145 and in the test with HCT-15 were > 100 µM (inactive) and greater than 100 µM, respectively.
With `CNC(=O)OCc1c(COC(=O)NC)c(-c2ccc(Cl)c(Cl)c2)n2c1SCC2`, the GI50 with MDA-N was 18.5 µM (inactive); with CAKI-1, 4.22 µM (inactive); in the test on KM12 it was 17.5 µM (inactive); in the test on U-251, 7.85 µM (inactive); in the test with SNB-19 it was 29.2 µM (inactive); in the test on HCC 2998, 19.7 µM (inactive). Besides, the GI50 was 6.21 µM (inactive) with SK-OV-3; 12 µM (inactive) with MOLT-4; 10.6 µM (inactive) in the test on HOP-92; 2.33 µM (inactive) in the test on SR; 9.82 µM (inactive) in the test with COLO 205; 8.85 µM (inactive) in the test with NCI-H522. For the same molecule, the GI50 in the test on RPMI-8226 is 12.2 µM (inactive); in the test with SK-MEL-5, 13.5 µM (inactive); with UACC-62, 5.74 µM (inactive); with HOP-62, 17.8 µM (inactive); in the test on A549, 23.2 µM (inactive); with NCI-H460, 9.04 µM (inactive). The GI50 was 17.2 µM (inactive) with DU-145 and 13 µM in the test on HCT-15.
On to `CC(=O)Nc1ccc(C2SCc3nc4ccccc4n32)cc1` (stereo not given), for which the GI50 in the test with MDA-N was > 100 µM (inactive); in the test with CAKI-1 it was 39.2 µM (inactive); with KM12, > 100 µM (inactive); in the test with U-251 it was 73.3 µM (inactive); in the test on SNB-19 it was > 100 µM (inactive); in the test with HCC 2998, > 100 µM (inactive). Besides, the GI50 in the test with SK-OV-3 was > 100 µM (inactive); with MOLT-4 it was > 100 µM (inactive); in the test on HOP-92 it was 57.7 µM (inactive); with SR it was > 77.1 µM (inactive); in the test with COLO 205, > 100 µM (inactive); with NCI-H522, 66.5 µM (inactive). The GI50 is 47.6 µM (inactive) in the test on RPMI-8226; 60.1 µM (inactive) with SK-MEL-5; > 100 µM (inactive) in the test with UACC-62; > 100 µM (inactive) in the test on HOP-62; > 100 µM (inactive) in the test on A549; > 100 µM (inactive) in the test on NCI-H460. Also, the GI50 in the test with DU-145 is > 100 µM (inactive); with HCT-15, 47.3 µM.
Turning to `CC[C@]12CCCN3CCc4c(n(c5ccccc45)C(=O)C1)[C@@H]32` [VINBURNINE], the GI50 in the test on MDA-N was 1.53 µM (inactive); with CAKI-1 it was > 100 µM (inactive); with KM12, 4.54 µM (inactive); with U-251, 4.88 µM (inactive); with SNB-19, 14.5 µM (inactive); in the test on HCC 2998, 3.92 µM (inactive). The GI50 in the test on SK-OV-3 is 10.8 µM (inactive); with MOLT-4, 12.2 µM (inactive); in the test on HOP-92 it was > 80.9 µM (inactive); in the test on SR, 1.31 µM (inactive); in the test on COLO 205, 4.43 µM (inactive); with NCI-H522 it was 2.32 µM (inactive). Besides, the GI50 with RPMI-8226 is 4.56 µM (inactive); in the test with SK-MEL-5, 5.05 µM (inactive); in the test on UACC-62, 5.82 µM (inactive); in the test on HOP-62, 4.76 µM (inactive); in the test with A549, 7.5 µM (inactive); with NCI-H460 it was 3.72 µM (inactive). The GI50 in the test on DU-145 is 19.2 µM (inactive); in the test with HCT-15, 4.15 µM.
`NC1=Nc2ccccc2Sc2cccc(F)c21`: the GI50 is 46.1 µM (inactive) in the test on MDA-N; > 100 µM (inactive) with CAKI-1; 97.7 µM (inactive) in the test on KM12; 85.9 µM (inactive) in the test on U-251; > 100 µM (inactive) with SNB-19; > 100 µM (inactive) with HCC 2998. Besides, the GI50 in the test on SK-OV-3 was > 100 µM (inactive); in the test on MOLT-4 it was 37.8 µM (inactive); with HOP-92 it was > 100 µM (inactive); in the test with SR, 35.1 µM (inactive); in the test with COLO 205, 61.7 µM (inactive); in the test on NCI-H522, 64.4 µM (inactive). Also, the GI50 is 36 µM (inactive) with RPMI-8226; 38 µM (inactive) with SK-MEL-5; 60.3 µM (inactive) with UACC-62; > 100 µM (inactive) with HOP-62; 57.5 µM (inactive) with A549; > 100 µM (inactive) in the test with NCI-H460. Also, the GI50 was > 100 µM (inactive) in the test on DU-145 and greater than 100 µM in the test with HCT-15.
